Measured values taken from the NIST ThermoML archive (doi:10.1016/j.fluid.2012.06.031).
± gives the expanded uncertainty stated by the source.

Columns and labels:
[1] = excess molar enthalpy (molar enthalpy of mixing); xn = mol fraction of the nth substance listed; conditions: 298.15 K, 101 kPa, Liquid, solution calorimetry
[2] = xn = mol fraction of the nth substance listed; conditions: 298.15 K, 101 kPa, Liquid, Pycnometric method
[3] = refractive index (Na D-line) (dimensionless); xn = mol fraction of the nth substance listed; conditions: 298.15 K, 101 kPa, Liquid, Standard Abbe refractometry
[4] = 298.15 K; 101.33 kPa; Liquid; Pycnometric method
[5] = refractive index (Na D-line) (dimensionless); conditions: 298.15 K; 101.33 kPa; Liquid; Standard Abbe refractometry

CC(C)CC(C)(C)C [2,2,4-trimethylpentane] + CCCO
Conditions | excess molar enthalpy, [1] [kcal/mol] | mass density, [2] [kg/m3] | refractive index, [3]
x2 = 0.0502 | – | 689.82 ± 0.56 | 1.3885 ± 0.00045
x2 = 0.0516 | 0.0974 ± 0.001 | – | –
x2 = 0.1 | 0.1255 ± 0.00117 | – | –
x2 = 0.1002 | – | 692.19 ± 0.56 | 1.38816 ± 0.00045
x2 = 0.15 | 0.1338 ± 0.00122 | – | –
x2 = 0.1504 | – | 694.9 ± 0.56 | 1.38785 ± 0.00045
x2 = 0.1999 | – | 697.87 ± 0.56 | 1.38759 ± 0.00044
x2 = 0.2001 | 0.1457 ± 0.00131 | – | –
x2 = 0.3 | – | 704.65 ± 0.56 | 1.38712 ± 0.00044
x2 = 0.3001 | 0.1564 ± 0.00139 | – | –
x2 = 0.3999 | – | 712.46 ± 0.56 | 1.38669 ± 0.00043
x2 = 0.4001 | 0.1561 ± 0.00139 | – | –
x2 = 0.5 | – | 721.44 ± 0.56 | 1.38627 ± 0.00043
x2 = 0.5002 | 0.144 ± 0.00129 | – | –
x2 = 0.6001 | 0.1255 ± 0.00117 | 731.85 ± 0.57 | 1.3858 ± 0.00042
x2 = 0.7 | – | 744.14 ± 0.58 | 1.38526 ± 0.00042
x2 = 0.7048 | 0.0969 ± 0.00098 | – | –
x2 = 0.7999 | – | 758.95 ± 0.58 | 1.38462 ± 0.00042
x2 = 0.8 | 0.0709 ± 0.000837 | – | –
x2 = 0.85 | 0.0561 ± 0.000765 | 767.56 ± 0.59 | 1.38426 ± 0.00042
x2 = 0.8998 | 0.0388 ± 0.000669 | – | –
x2 = 0.9 | – | 777.1 ± 0.6 | 1.38387 ± 0.00041
x2 = 0.9499 | 0.0204 ± 0.000598 | – | –
x2 = 0.9501 | – | 787.71 ± 0.6 | 1.38345 ± 0.00041

CCCCCO [pentan-1-ol]
Conditions | mass density [kg/m3] | refractive index
[4] | 810.8 ± 0.66 | –
[5] | – | 1.4078 ± 0.0007

CCCCO [butan-1-ol]
Conditions | mass density [kg/m3] | refractive index
[4] | 805.8 ± 0.62 | –
[5] | – | 1.3974 ± 0.0007

CC(C)CC(C)(C)C [2,2,4-trimethylpentane]
Conditions | mass density [kg/m3] | refractive index
[4] | 687.9 ± 0.56 | –
[5] | – | 1.3889 ± 0.0007

CCCO [propan-1-ol]
Conditions | mass density [kg/m3] | refractive index
[4] | 799.6 ± 0.61 | –
[5] | – | 1.3832 ± 0.0007

CCCCCO [pentan-1-ol] + CC(C)CC(C)(C)C
Conditions | excess molar enthalpy, [1] [kcal/mol] | mass density, [2] [kg/m3] | refractive index, [3]
x1 = 0.05 | 0.09 ± 0.000956 | – | –
x1 = 0.0501 | – | 691.14 ± 0.56 | 1.38936 ± 0.00046
x1 = 0.0998 | 0.1135 ± 0.0011 | – | –
x1 = 0.1 | – | 695.2 ± 0.57 | 1.38993 ± 0.00046
x1 = 0.1499 | – | 699.5 ± 0.57 | 1.39059 ± 0.00046
x1 = 0.15 | 0.127 ± 0.00117 | – | –
x1 = 0.1996 | 0.1326 ± 0.00122 | – | –
x1 = 0.2017 | – | 704.19 ± 0.57 | 1.39135 ± 0.00046
x1 = 0.2997 | 0.1439 ± 0.00129 | – | –
x1 = 0.3001 | – | 713.84 ± 0.58 | 1.39297 ± 0.00046
x1 = 0.3999 | 0.1413 ± 0.00129 | – | –
x1 = 0.4 | – | 724.6 ± 0.59 | 1.39478 ± 0.00046
x1 = 0.4998 | 0.1317 ± 0.00122 | – | –
x1 = 0.5001 | – | 736.36 ± 0.6 | 1.3967 ± 0.00046
x1 = 0.5999 | 0.109 ± 0.00108 | – | –
x1 = 0.6001 | – | 749.12 ± 0.61 | 1.3987 ± 0.00046
x1 = 0.7 | 0.091 ± 0.000956 | 762.91 ± 0.62 | 1.40077 ± 0.00046
x1 = 0.7999 | – | 777.72 ± 0.63 | 1.40293 ± 0.00046
x1 = 0.8 | 0.063 ± 0.000789 | – | –
x1 = 0.85 | 0.0472 ± 0.000717 | 785.54 ± 0.64 | 1.40407 ± 0.00046
x1 = 0.9 | 0.0321 ± 0.000645 | 793.63 ± 0.65 | 1.40525 ± 0.00046
x1 = 0.95 | 0.015 ± 0.000574 | 801.98 ± 0.65 | 1.40649 ± 0.00046

CC(C)CC(C)(C)C [2,2,4-trimethylpentane] + CCCCO
Conditions | excess molar enthalpy, [1] [kcal/mol] | mass density, [2] [kg/m3] | refractive index, [3]
x2 = 0.05 | 0.0947 ± 0.00098 | – | –
x2 = 0.0501 | – | 690.95 ± 0.56 | 1.38897 ± 0.00046
x2 = 0.1 | 0.1201 ± 0.00115 | – | –
x2 = 0.1001 | – | 694.28 ± 0.56 | 1.38909 ± 0.00045
x2 = 0.1501 | – | 697.81 ± 0.56 | 1.38925 ± 0.00045
x2 = 0.1502 | 0.1362 ± 0.00124 | – | –
x2 = 0.2 | 0.1404 ± 0.00127 | 701.56 ± 0.56 | 1.38946 ± 0.00045
x2 = 0.2995 | 0.1489 ± 0.00134 | – | –
x2 = 0.3001 | – | 709.77 ± 0.57 | 1.38999 ± 0.00044
x2 = 0.3999 | – | 718.98 ± 0.57 | 1.39067 ± 0.00044
x2 = 0.4 | 0.1503 ± 0.00134 | – | –
x2 = 0.5 | – | 729.4 ± 0.57 | 1.39149 ± 0.00043
x2 = 0.5001 | 0.1419 ± 0.00129 | – | –
x2 = 0.5999 | – | 741.16 ± 0.58 | 1.39244 ± 0.00043
x2 = 0.6002 | 0.1233 ± 0.00115 | – | –
x2 = 0.6999 | – | 754.51 ± 0.59 | 1.3935 ± 0.00042
x2 = 0.7 | 0.0968 ± 0.00098 | – | –
x2 = 0.8 | 0.0686 ± 0.000837 | 769.68 ± 0.59 | 1.39466 ± 0.00042
x2 = 0.8499 | 0.0532 ± 0.000741 | – | –
x2 = 0.85 | – | 778.03 ± 0.6 | 1.39527 ± 0.00042
x2 = 0.9 | 0.0359 ± 0.000669 | 786.94 ± 0.6 | 1.3959 ± 0.00042
x2 = 0.9499 | 0.0188 ± 0.000598 | – | –
x2 = 0.95 | – | 796.46 ± 0.61 | 1.39654 ± 0.00042
